Measured values from patent US20230390192A1, “GASTRO RETENTIVE DOSAGE FORMS COMPRISING DEUTETRABENAZINE” (AUSPEX PHARMACEUTICALS, INC., priority 2020, published 2023).

Experiments:
[1] = Particle size distribution by laser diffractometry (Mastersizer 3000); assay type: physicochemical; conditions: drug substance, dry measurement
Source text: As used herein, the term “particle size distribution” refers to the statistical distribution of the volume share related of all particle sizes and is represented by D90, D50 or D10 values. The D90 value of the integral volume distribution is defined in the context of this invention as the particle diameter, at which 90 percent by volume of the particles have a smaller diameter than the diameter, which corresponds to the D90 value. For example, a D90 of 15 μm, means that 90% (by volume) of the particles have a diameter less than or equal to 15 μm. A D50 of 10 μm, means that 50% (by volume) of the particles have a diameter less than or equal to 10 μm. A D10 of 3 μm, means that 10% (by volume) of the particles have a diameter less than or equal to 3 μm. Particle size distribution is determined by means of laser diffractometry. More specifically, the particle size distribution is determined using a Mastersizer 3000 from Malvern Instruments.
The deutetrabenazine particle size distributions following manufacture (untreated), milling (quadro co-mill) and micronization (air jet mill) are shown in Table 1.
For dry measurement of the milled and unmilled deutetrabenazine the following settings are preferably used: […]

[2] = Human [14C]-AME study; conditions: humans, dosed as powder in capsule (PIC)
[3] = Drug solubility at different pH
[4] = in vivo; cited from earlier work
[5] = Rat perfusion model, intestinal permeability/absorption
[6] = Single-dose partial crossover comparative bioavailability study in dogs
Experimental: The trial was conducted as an open-label, randomized, single-dose, partial crossover comparative bioavailability study. The study was designed to determine the AUC0-t, AUC0-24, Cmax and Tmax of deutetrabenazine and total deuterated α- and β-dihydrotetrabenazine (deuHTBZ) metabolites. The sample group consisted of 4 male beagle dogs. Each dog was administered two treatments. […] A washout period of 14 days was kept before crossing over to the next treatment. Each dog was administered a single oral dose with 10 ml water. Prior to each dose administration, the dogs were pretreated with pentagastrin (to stimulate gastric acid secretion.
Blood samples were collected before dosing and at predetermined time points through 24 hours post-dosing. The samples were analyzed for deutetrabenazine and total deuHTBZ in plasma using an LC-MS/MS method.

[7] = Deutetrabenazine/deuHTBZ Cmax ratio in humans; assay type: in vivo

SMILES	D10 [1] [μm]	D50 [1] [μm]	D90 [1] [μm]	radioactive dose recovered in urine [2]	solubility ([3]; acidic environment (pH<4))	solubility ([3]; pH ≥4) [µg/mL]	half-life of active metabolites relative to tetrabenazine [4]	permeability through the small intestinal (SI) segments ([5]; rat perfusion model)	levels of absorption in the lower GI (rank order of segments) ([5]; rats)	ileum absorption ([5]; rats, lower GI)	deutetrabenazine/deuHTBZ Cmax ratio [6]	deutetrabenazine/deuHTBZ Cmax ratio [7] [%]
[2H]C([2H])([2H])Oc1cc2c(cc1OC([2H])([2H])[2H])C1CC(=O)C(CC(C)C)CN1CC2 (stereo not drawn) [co-milled, deutetrabenazine]	6.11	33.55	131.55									
[2H]C([2H])([2H])Oc1cc2c(cc1OC([2H])([2H])[2H])C1CC(=O)C(CC(C)C)CN1CC2 (stereo not drawn) [micro-milled, deutetrabenazine]	1.08	3.31	7.05									
[2H]C([2H])([2H])Oc1cc2c(cc1OC([2H])([2H])[2H])[C@H]1CC(=O)[C@H](CC(C)C)CN1CC2 [Deutetrabenazine, (RR,SS)-1,3,4,6,7,11b-hexahydro-9,10-di(methoxy-D3)-3-(2-methylpropyl)-2H-benzo[a]quinolizin-2-one]				approximately 80%	relatively good solubility	< 2300	increased	permeable	Jejunum<Mid-small intestine<Colon<Ileum	about 0.0006 cm/sec	about 10%	< 1
[2H]C([2H])([2H])Oc1cc2c(cc1OC([2H])([2H])[2H])C1CC(=O)C(CC(C)C)CN1CC2 (stereo not drawn) [unmilled, deutetrabenazine]	9.08	59.66	213.07									
